Assay results reported in patent US9850216B2 (H. LEE MOFFITT CANCER CENTER AND RESEARCH INSTITUTE, INC., priority 2013, dated 2017).
Where “and” joins values, the source holds several entries; their conditions need not be identical. Equal values may be shown once.

Experiments:
ACK1 = ACK1 (Homo sapiens, UniProt Q07912); test: ACK1 ELISA: phosphorylation of AKT-derived peptide; format: biochemical; settings: 10 μM, Table 1, replicate values listed; for inhibition at 10 µM: read-out: % Inhibition at 10 μM (ELISA)
Sequence of ACK1 (Q07912 whole entry): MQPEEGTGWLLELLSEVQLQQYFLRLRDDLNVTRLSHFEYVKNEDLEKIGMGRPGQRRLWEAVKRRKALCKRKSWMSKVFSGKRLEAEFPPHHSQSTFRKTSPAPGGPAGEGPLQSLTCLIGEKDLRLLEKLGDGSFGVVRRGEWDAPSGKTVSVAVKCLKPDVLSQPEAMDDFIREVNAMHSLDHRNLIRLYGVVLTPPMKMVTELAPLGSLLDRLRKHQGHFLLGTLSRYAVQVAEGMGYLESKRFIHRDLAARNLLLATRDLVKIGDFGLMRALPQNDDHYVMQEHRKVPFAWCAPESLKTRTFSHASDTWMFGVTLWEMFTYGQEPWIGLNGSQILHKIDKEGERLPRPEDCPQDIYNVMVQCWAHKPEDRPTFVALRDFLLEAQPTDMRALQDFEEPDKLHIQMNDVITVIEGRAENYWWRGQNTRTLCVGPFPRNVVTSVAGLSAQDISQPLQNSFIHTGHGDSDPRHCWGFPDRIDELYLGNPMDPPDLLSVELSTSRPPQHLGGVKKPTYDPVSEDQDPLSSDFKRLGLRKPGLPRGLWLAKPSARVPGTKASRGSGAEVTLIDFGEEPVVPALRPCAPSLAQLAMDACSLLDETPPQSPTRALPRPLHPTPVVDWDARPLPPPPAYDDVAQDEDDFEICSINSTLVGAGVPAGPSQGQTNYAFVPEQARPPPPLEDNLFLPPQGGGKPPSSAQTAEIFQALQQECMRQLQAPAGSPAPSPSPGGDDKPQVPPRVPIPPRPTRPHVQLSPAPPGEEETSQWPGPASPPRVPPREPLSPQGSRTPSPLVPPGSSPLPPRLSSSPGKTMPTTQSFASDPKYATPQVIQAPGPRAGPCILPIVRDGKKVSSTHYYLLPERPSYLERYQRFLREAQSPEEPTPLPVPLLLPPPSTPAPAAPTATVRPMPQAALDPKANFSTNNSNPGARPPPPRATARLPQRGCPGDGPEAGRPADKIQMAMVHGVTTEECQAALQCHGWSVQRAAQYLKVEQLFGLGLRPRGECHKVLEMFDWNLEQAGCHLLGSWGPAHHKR

% Inhibition at 10 μM (ELISA) (ACK1)	melting point	% Inhibition at 10 μM (ELISA) (ACK1; hydrochloride)	inhibition at 10 µM (ACK1) [%]	SMILES
0% and 14% and −8%	226 to 229 °C			CCCS(=O)(=O)c1ccccc1Nc1nc(Cl)ncc1C(=O)Nc1c(F)cccc1Cl [YL7-052, 2-Chloro-N-(2-chloro-6-fluorophenyl)-4-(2-(propylsulfonyl)phenylamino)pyrimidine-5-carboxamide]
	144 °C (dec.)	4% and 10% and −6%		Cl.Oc1ccc(Nc2nc(NCC3CCCO3)c3ccccc3n2)cc1F (stereo not drawn) [YL8-001, 2-Fluoro-4-(4-((tetrahydrofuran-2-yl)methylamino)quinazolin-2-ylamino)phenol hydrochloride]
37% and 18%	246 °C (dec.)			COc1ccc(Nc2ncc(C(=O)Nc3c(F)cccc3Cl)c(Nc3ccccc3S(=O)(=O)C(C)C)n2)cc1 [YL7-045-1, N-(2-chloro-6-fluorophenyl)-4-(2-(isopropylsulfonyl)phenylamino)-2-(4-methoxyphenylamino)pyrimidine-5-carboxamide]
	232 °C (dec.)		0	CC(C)Sc1ccccc1Nc1nc(Nc2ccc(O)cc2)ncc1C(=O)Nc1c(F)cccc1Cl [YL7-045-4, N-(2-chloro-6-fluorophenyl)-2-(4-hydroxyphenylamino)-4-(2-(isopropylthio)phenylamino)pyrimidine-5-carboxamide]
	204 to 206 °C		0	CSc1ccccc1Nc1nc(Cl)ncc1C(=O)Nc1c(F)cccc1Cl [YL7-031B2, 2-Chloro-N-(2-chloro-6-fluorophenyl)-4-(2-(methylthio)phenylamino)pyrimidine-5-carboxamide]
50%	168 °C (dec.)		47	CC(C)S(=O)(=O)c1ccccc1Nc1nc(Nc2ccc(O)cc2)ncc1C(=O)Nc1c(F)cccc1Cl [YL7-045-2, N-(2-chloro-6-fluorophenyl)-2-(4-hydroxyphenylamino)-4-(2-(isopropylsulfonyl)phenylamino)pyrimidine-5-carboxamide]
27% and 13%	234 to 235 °C			CCCS(=O)(=O)c1ccccc1Nc1nc(Nc2ccc(OC)cc2)ncc1C(=O)Nc1c(F)cccc1Cl [YL7-055-1, N-(2-chloro-6-fluorophenyl)-2-(4-methoxyphenylamino)-4-(2-(propylsulfonyl)phenylamino)pyrimidine-5-carboxamide]
27%	208 °C (dec.)		28	CCCSc1ccccc1Nc1nc(Nc2ccc(O)cc2)ncc1C(=O)Nc1c(F)cccc1Cl [YL7-055-4, N-(2-chloro-6-fluorophenyl)-2-(4-hydroxyphenylamino)-4-(2-(propylthio)phenylamino)pyrimidine-5-carboxamide]
40% and 5%	246 °C (dec.)			CSc1ccccc1Nc1nc(Nc2ccc(O)cc2)ncc1C(=O)Nc1c(F)cccc1Cl [YL7-039-2, N-(2-chloro-6-fluorophenyl)-2-(4-hydroxyphenylamino)-4-(2-(methylthio)phenylamino)pyrimidine-5-carboxamide]
	197 to 200 °C		0	CCCSc1ccccc1Nc1nc(Cl)ncc1C(=O)Nc1c(F)cccc1Cl [YL7-051, 2-Chloro-N-(2-chloro-6-fluorophenyl)-4-(2-(propylthio)phenylamino)pyrimidine-5-carboxamide]
24% and 47%	233 °C (dec.)			CCSc1ccccc1Nc1nc(Nc2ccc(O)cc2)ncc1C(=O)Nc1c(F)cccc1Cl [YL7-058-4, N-(2-chloro-6-fluorophenyl)-4-(2-(ethylthio)phenylamino)-2-(4-hydroxyphenylamino)pyrimidine-5-carboxamide]
−15% and 0%	237 to 240 °C			COc1ccc(Nc2ncc(C(=O)Nc3c(F)cccc3Cl)c(Nc3ccccc3SC(C)C)n2)cc1 [YL7-045-3, N-(2-chloro-6-fluorophenyl)-4-(2-(isopropylthio)phenylamino)-2-(4-methoxyphenylamino)pyrimidine-5-carboxamide]

Second part, the compound before the results:

SMILES	% Inhibition at 10 μM (ELISA) (ACK1)	melting point	% Inhibition at 10 μM (ELISA) (ACK1; hydrochloride)	inhibition at 10 µM (ACK1) [%]
Cl.O=C(O)c1cc(Nc2ncc(Br)c(NCC3CCCO3)n2)ccc1O (stereo not drawn) [YL8-003-1, 5-(5-Bromo-4-((tetrahydrofuran-2-yl)methylamino)pyrimidin-2-ylamino)-2-hydroxybenzoic acid hydrochloride]		211 °C (dec.)	28% and 16%	27
Cl.Oc1ccc(Nc2ncc(Br)c(NCC3CCCO3)n2)cc1Cl (stereo not drawn) [YL7-172-1, 4-(5-Bromo-4-((tetrahydrofuran-2-yl)methylamino)pyrimidin-2-ylamino)-2-chlorophenol hydrochloride]		193 °C (dec.)	75% and 55% and 35%	
CN1CCN(c2ccc(Nc3ncc(F)c(NCC4CCCO4)n3)cc2)CC1 (stereo not drawn) [DZ1-098, 5-fluoro-N2-(4-(4-methylpiperazin-1-yl)phenyl)-N4-((tetrahydrofuran-2-yl)methyl)pyrimidine-2,4-diamine]	48%	86 °C (dec.)		61
Cc1cnc(Nc2ccc(N3CCN(C)CC3)cc2)nc1NCC1CCCO1 (stereo not drawn) [DZ1-100, 5-methyl-N2-(4-(4-methylpiperazin-1-yl)phenyl)-N4-((tetrahydrofuran-2-yl)methyl)pyrimidine-2,4-diamine]	85% and 54% and 5% and 10%	151.7 °C (dec.)		
Cl.O=C(O)CCCc1ccc(Nc2ncc(Cl)c(NC[C@H]3CCCO3)n2)cc1 [NT1-026, (R)-4-(4-(5-Chloro-4-((tetrahydrofuran-2-yl)methylamino)pyrimidin-2-ylamino)phenyl)butanoic acid]	65%	180 °C (dec.)		55
Cc1ccc(Nc2ncc(Br)c(NCC3CCCO3)n2)cc1F.Cl (stereo not drawn) [YL7-172-4, 5-Bromo-N2-(3-fluoro-4-methylphenyl)-N4-((tetrahydrofuran-2-yl)methyl)pyrimidine-2,4-diamine hydrochloride]		189 °C (dec.)	0% and −12% and 20%	
COc1ccc(Nc2ncc(Br)c(NCC3CCCO3)n2)cc1F.Cl (stereo not drawn) [YL7-172-8, 5-Bromo-N2-(3-fluoro-4-methoxyphenyl)-N4-((tetrahydrofuran-2-yl)methyl)pyrimidine-2,4-diamine hydrochloride]		169 °C (dec.)	14% and 35% and 41%	
CC(C)(C)OC(=O)N1CCN(c2ccc(Nc3ncc(Br)c(NCC4CCCO4)n3)cc2)CC1.Cl (stereo not drawn) [YL9-157, tert-Butyl4-(4-(5-bromo-4-((tetrahydrofuran-2-yl)methylamino)pyrimidin-2-ylamino)phenyl)piperazine-1-carboxylate hydrochloride]		124 °C (dec.)	46%	47
CCc1cnc(Nc2ccc(N3CCN(C)CC3)cc2)nc1NCC1CCCO1 (stereo not drawn) [DZ1-108, 5-ethyl-N2-(4-(4-methylpiperazin-1-yl)phenyl)-N4-((tetrahydrofuran-2-yl)methyl)pyrimidine-2,4-diamine]	72% and 48% and 34% and 46%	209.5 °C (dec.)		
